Assay results from patent US20250275951A1, “DRUGS TARGETING INFLAMMATION FOR THE TREATMENT OF OSTEOARTHRITIS AND OTHER INFLAMMATORY DISEASES” (The Board of Trustees of the Leland Stanford Junior …, priority 2020, published 2025).

Legend:
DMM mouse model for OA = assay: Cartilage degeneration scoring of safranin-O stained joint sections in DMM mouse model for OA; assay type: in vivo
Experimental: Histologic outcomes: 20 wks after DMM, mice are sacrificed, and OA assessed histologically by a blinded examiner scoring cartilage degeneration through Safranin-O stained sections, and scoring synovitis and osteophytes through H&E stained sections.
Treatment with pharmacologic agents. Beginning 24 hrs after DMM, mice (n=10 per experimental arm) are treated by injection or oral gavage for 12 wks with either vehicle, or one of the agents as detailed in Table 1.
Histologic analysis. Histologic analysis of mouse stifle joints occurs 20-wks after surgery. Cartilage degeneration is assessed through scoring of Safranin-O stained sections and synovitis and osteophyte formation assessed through scoring of H&E stained sections. Significance was assessed by unpaired 2-tailed Mann-Whitney U test, with *P<0.05, **P<0.01, ***P<0.001.
After 12 weeks of treatment, mice were sacrificed, and the stifle joints harvested for histologic analysis, and safranin-O stained joint tissue sections were scored by a blinded examiner for the degree of cartilage degeneration. […] Significance was assessed by unpaired 2-tailed Mann-Whitney U test, with *P<0.05, **P<0.01, ***P<0.001, N.S. non-significant.
After 12 weeks of treatment, mice were sacrificed, and the stifle joints harvested for histologic analysis, and safranin-O stained joint tissue sections were scored by a blinded examiner for the degree of cartilage degeneration. […] Significance was assessed by unpaired 2-tailed Mann-WhitneyU test, with *P<0.05, **P<0.01, ***P<0.001.
Mice were then sacrificed, and the stifle joints harvested for histologic analysis. (A) Safranin-O stained joint tissue sections were scored by a blinded examiner for the degree of cartilage degeneration. (B) Representative safranin-O stained sections from each group are presented. […] Significance was assessed by unpaired 2-tailed Mann-Whitney U test, with *P<0.05, **P<0.01, ***P<0.001.

[1] = in vivo; cited from earlier work
[2] = system: human OA synovial tissue organoid; assay: Human OA synovial tissue organoid stimulation assay (qPCR); assay type: cell-based; conditions: rupatadine 1 μM, fenofibrate 1 μM or both; 24 hr with human OA synovial fluid; vs vehicle
Experimental: Human OA synovium was obtained at the time of arthroplasty and cultured overnight in tissue culture medium with human OA synovial fluid.
The arthroplasty synovium was then washed with media, cut into approximately 2 mm pieces, and individual organoid pieces further stimulated for 24 hr with human OA synovial fluid in the presence of the test small molecule compounds and combinations including: vehicle control; rupatadine 1 μM; fenofibrate 1 μM; or rupatadine 1 μM+fenofibrate 1 μM. The organoids were then harvested, total RNA extracted, reverse transcription performed, followed by qPCR to quantitate levels of RNA encoding the inflammatory lipid PAF biosynthesis enzyme (Ipcat2) gene expression as well as PAF receptor (ptafr) gene expression.

SMILES: CC(C)c1c(C(=O)Nc2ccccc2)c(-c2ccccc2)c(-c2ccc(F)cc2)n1CC[C@@H](O)C[C@@H](O)CC(=O)O [Atorvastatin]
- prevention of OA (quantification of cartilage degeneration 20 wks post-DMM) (DMM mouse model for OA; C57BL/6J wild-type mice, atorvastatin 0.5 mg/kg for 12 wks following DMM vs vehicle, p=0.0513): does not prevent OA
- development / severity of OA following DMM (DMM mouse model for OA; mice, dose not given at place): failure of atorvastatin to prevent OA

SMILES: CCc1ccc(CCOc2ccc(CC3SC(=O)NC3=O)cc2)nc1 (stereo not shown) [Pioglitazone]
- Bioavailability [1]: 83%

SMILES: O=C1[C@H](CC[C@H](O)c2ccc(F)cc2)[C@@H](c2ccc(O)cc2)N1c1ccc(F)cc1 [Ezetimibe]
- Bioavailability [1]: variable

SMILES: Cc1cncc(CN2CCC(=C3c4ccc(Cl)cc4CCc4cccnc43)CC2)c1 [Rupatadine]
- PAF receptor (ptafr) gene expression [2]: decreased
- inflammatory lipid PAF biosynthesis enzyme (Ipcat2) gene expression [2]: decreased
- severity / development of OA (cartilage degeneration scores) (DMM mouse model for OA; C57Bl/6 mice, oral gavage from 1 week after DMM for 3 months, rupatadine 20 μg, fenofibrate 40 μg, or both): decreased the severity of OA
- severity of OA-related cartilage degeneration following DMM (DMM mouse model for OA; WT mice, vs vehicle (combination also vs either drug alone), Example 1, dose not given at place): significantly less severe OA-related cartilage degeneration

SMILES: Cc1ccc(C)c(OCCCC(C)(C)C(=O)O)c1 [Gemfibrozil]
- Bioavailability [1]: 100%

SMILES: CC(C)(Oc1ccc(CCNC(=O)c2ccc(Cl)cc2)cc1)C(=O)O [Bezafibrate]
- Bioavailability [1]: 100%
